Drawing on ChEMBL document CHEMBL1201862, “PubChem BioAssay data set” (2004), this text covers AC50, IC50 and EC50 for eight molecules.

Calls of active or inactive are those of the source.

Assay [1] addresses FAD-linked sulfhydryl oxidase ALR (Homo sapiens, UniProt P55789). Nature of the assay: inhibitors of human ALR sulfhydryl oxidase, dose response, biochemical, H2O2 detection, luminescence, cherry-pick (AID 493248).
Assay [2] deals with T1, Interleukin-8 (Homo sapiens, UniProt P10145). Nature of the assay: Dose Response confirmation of uHTS small molecule hits for cystic fibrosis induced NFkb Inhibitors in a TNFa-induced IL8 counterscreen. The format is functional. The note with it: read-out: IC50_Mean. On the technique in general: A counterscreen serves to expose hits that act by an unwanted route or on another target.
T1 sequence (P10145 whole entry): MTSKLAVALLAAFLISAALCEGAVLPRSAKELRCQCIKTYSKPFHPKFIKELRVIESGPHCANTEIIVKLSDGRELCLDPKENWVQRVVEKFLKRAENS

Assay [3] has as its target T1, Interleukin-8. As to the kind of experiment: Dose Response confirmation of uHTS small molecule hits for cystic fibrosis induced NFkb Inhibitors in a PAF-induced IL8 counterscreen. It is filed as functional. The note with it: read-out: IC50_Mean.
A short description of assay [4]: cytotoxicity toward NIH3T3 fibroblasts, dose response, counter-screen, cell-based, ATP luminescence, mouse fibroblasts (AID 2010).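 Further: cells exposed to compound for about 90 hours before reading.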 It is filed as functional.
In assay [5] the target is SWI/SNF-related matrix-associated actin-dependent regulator of chromatin subfamily A member 2 (Homo sapiens, UniProt P51531). Nature of the assay: Luminescence-based cell-based high throughput dose response assay to identify activators of the function of SWI/SNF related, matrix associated, actin dependent regulator of chromatin, subfamily a, member 2 (SMARCA2, BRM). It is filed as functional.

Assay [6] in a line: Counterscreen for activators of the function of SWI/SNF related, matrix associated, actin dependent regulator of chromatin, subfamily a, member 2 (SMARCA2, BRM): Luminescence-based cell-based high throughput dose response assay to identify non-selective compounds using the VP16 reporter assay. It is filed as functional.
Assay [7] deals with DNA repair and recombination protein RAD54-like (Homo sapiens, UniProt Q92698). As to the kind of experiment: inhibitors of human RAD54 branch migration, confirmation, biochemical, fluorescence, cherry-picked samples, dose series (AID 651657). It is filed as functional.
DNA repair and recombination protein RAD54-like, sequence (Q92698 whole entry): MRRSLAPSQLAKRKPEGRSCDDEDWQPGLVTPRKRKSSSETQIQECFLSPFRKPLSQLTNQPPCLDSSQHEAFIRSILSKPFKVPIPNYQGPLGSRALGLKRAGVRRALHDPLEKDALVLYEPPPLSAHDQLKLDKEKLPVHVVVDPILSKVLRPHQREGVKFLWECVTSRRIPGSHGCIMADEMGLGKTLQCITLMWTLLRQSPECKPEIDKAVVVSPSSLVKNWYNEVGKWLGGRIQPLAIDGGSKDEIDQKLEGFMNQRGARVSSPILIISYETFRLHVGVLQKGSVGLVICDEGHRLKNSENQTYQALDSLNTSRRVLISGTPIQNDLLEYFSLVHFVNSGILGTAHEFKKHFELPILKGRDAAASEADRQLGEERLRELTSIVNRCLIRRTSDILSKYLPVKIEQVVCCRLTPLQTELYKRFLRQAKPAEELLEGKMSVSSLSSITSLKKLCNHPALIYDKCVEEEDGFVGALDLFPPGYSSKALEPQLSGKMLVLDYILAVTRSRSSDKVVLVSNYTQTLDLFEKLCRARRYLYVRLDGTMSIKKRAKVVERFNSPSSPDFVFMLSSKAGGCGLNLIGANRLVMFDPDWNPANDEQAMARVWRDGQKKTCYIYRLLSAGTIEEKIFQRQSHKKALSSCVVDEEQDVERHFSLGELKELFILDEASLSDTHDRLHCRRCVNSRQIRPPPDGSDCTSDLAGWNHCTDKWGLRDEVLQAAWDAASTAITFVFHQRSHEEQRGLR
Assay [8] is described as follows: inhibitors of intracellular T. cruzi replication, confirmation, NIH3T3 host cells, beta-gal luminescence (AID 2044).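 Further: intracellular parasites grown in NIH/3T3 mouse fibroblasts as host cells; luminescent beta-galactosidase reporter signal from transgenic T. cruzi replicating inside host cells; inhibitors lower the luminescence signal.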 The format is functional, cell-based.
The target in assay [9] is T2, Apoptotic protease-activating factor 1 (Homo sapiens, UniProt O14727).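 Further: caspase-3 cleavage of fluorogenic Rh110 DEVD substrate downstream of apoptosome activation.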
T2 sequence (O14727 whole entry): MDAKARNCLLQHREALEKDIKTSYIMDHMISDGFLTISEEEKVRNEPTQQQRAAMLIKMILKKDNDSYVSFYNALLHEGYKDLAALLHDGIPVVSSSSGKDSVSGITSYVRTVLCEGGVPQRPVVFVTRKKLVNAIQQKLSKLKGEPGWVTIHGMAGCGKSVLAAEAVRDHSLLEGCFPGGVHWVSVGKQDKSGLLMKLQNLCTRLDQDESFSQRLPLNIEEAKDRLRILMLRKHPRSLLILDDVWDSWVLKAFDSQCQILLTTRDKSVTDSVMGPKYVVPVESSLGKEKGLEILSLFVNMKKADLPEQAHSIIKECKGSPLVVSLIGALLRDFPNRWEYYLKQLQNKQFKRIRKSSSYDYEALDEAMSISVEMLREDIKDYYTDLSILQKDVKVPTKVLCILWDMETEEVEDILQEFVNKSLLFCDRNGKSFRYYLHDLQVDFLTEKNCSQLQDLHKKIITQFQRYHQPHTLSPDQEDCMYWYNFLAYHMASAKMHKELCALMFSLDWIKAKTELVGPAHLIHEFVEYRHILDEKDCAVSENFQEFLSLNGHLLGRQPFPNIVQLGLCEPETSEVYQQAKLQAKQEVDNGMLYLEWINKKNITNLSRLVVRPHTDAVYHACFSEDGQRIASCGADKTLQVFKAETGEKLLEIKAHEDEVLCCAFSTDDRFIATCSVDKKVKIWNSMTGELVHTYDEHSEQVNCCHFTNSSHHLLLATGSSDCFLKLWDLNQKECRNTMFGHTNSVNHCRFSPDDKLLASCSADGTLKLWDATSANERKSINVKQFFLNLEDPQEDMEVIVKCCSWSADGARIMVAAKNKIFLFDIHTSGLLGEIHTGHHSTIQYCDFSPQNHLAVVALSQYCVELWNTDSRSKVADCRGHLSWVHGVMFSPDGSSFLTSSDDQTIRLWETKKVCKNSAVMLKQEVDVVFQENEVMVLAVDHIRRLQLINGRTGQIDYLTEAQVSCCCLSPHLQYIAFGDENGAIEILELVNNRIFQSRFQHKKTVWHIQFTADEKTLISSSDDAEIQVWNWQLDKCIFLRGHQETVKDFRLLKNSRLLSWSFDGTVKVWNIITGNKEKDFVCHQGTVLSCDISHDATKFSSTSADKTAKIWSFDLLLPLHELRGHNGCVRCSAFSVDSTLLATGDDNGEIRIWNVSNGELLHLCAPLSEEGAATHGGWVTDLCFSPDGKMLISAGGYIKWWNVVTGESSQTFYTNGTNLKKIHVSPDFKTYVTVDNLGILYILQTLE
As to the kind of experiment: SAR analysis of small molecule Activators of Apaf-1 in a Fluorescent assay. The format is functional. The note with it: read-out: EC50_Mean.

The target of assay [10] is T3, Heat shock factor protein 1 (Mus musculus, UniProt P38532).
T3 sequence (P38532 whole entry): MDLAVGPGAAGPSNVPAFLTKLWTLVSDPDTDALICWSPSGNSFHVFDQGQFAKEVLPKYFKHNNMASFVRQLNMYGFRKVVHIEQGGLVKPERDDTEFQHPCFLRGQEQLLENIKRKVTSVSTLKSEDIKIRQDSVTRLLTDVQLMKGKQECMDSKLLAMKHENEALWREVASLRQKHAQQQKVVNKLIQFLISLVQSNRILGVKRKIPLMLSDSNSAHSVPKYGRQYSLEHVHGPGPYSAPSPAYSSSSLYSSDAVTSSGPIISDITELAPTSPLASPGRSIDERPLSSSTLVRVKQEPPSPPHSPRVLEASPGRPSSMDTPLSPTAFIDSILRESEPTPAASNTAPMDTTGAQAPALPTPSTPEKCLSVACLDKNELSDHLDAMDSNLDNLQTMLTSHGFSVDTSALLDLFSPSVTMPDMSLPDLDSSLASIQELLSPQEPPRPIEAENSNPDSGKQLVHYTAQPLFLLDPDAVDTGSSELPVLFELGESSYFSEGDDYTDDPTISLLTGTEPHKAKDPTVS
Nature of the assay: inhibition of MG132-induced HSE-luciferase signal, confirmation, cell-based, NIH3T3, luminescence, dose retest (AID 2382).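 Further: NIH3T3 fibroblasts with HSF1-driven luciferase reporter stressed by proteasome inhibitor MG132; luminescence from HSF1-driven luciferase expression after 8 hours of MG132 stress.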 It is filed as functional.

Assay [11] deals with ADP-ribosylation factor GTPase-activating protein 1 (Rattus norvegicus, UniProt Q62848). Nature of the assay: Fluorescence polarization-based biochemical high throughput dose response screening assay to identify inhibitors of ADP-ribosylation factor GTPase activating protein 1 (ARFGAP1). The format is functional. A general note: In fluorescence polarisation assays a small probe gives low polarisation when free and higher when bound to something large.
ADP-ribosylation factor GTPase-activating protein 1, sequence (Q62848 whole entry): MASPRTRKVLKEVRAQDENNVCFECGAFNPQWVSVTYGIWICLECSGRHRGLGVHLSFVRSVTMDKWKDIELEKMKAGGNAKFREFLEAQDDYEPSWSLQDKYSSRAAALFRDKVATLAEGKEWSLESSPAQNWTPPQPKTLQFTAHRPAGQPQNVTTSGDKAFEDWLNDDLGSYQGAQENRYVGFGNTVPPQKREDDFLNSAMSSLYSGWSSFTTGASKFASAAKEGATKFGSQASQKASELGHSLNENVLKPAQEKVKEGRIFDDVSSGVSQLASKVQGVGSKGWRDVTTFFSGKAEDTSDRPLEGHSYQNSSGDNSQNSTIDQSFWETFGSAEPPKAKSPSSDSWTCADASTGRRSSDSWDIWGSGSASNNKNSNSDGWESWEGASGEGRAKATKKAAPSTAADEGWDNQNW

A short description of assay [12]: HepG2 cell cytotoxicity, dose response, cytotoxicity control for Shn3 inhibitor project, CellTiter-Glo, cherry-picked (AID 624134). It is filed as functional, cell-based. Background: ATP-based viability assays read luminescence as a measure of living cells.
The nature of assay [13]: non-specific cell cytotoxicity, dose response, cytotoxicity control for PAX8 inhibitor project, plate reader, dry powder samples (AID 743021). The format is functional, cell-based.
Assay [14] can be described thus: Shn3 3'UTR reporter inhibitors, dose response, cell-based, Clone20 osteoblasts, firefly luciferase, cherry-picked (AID 624132).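 Further: firefly luciferase luminescence from reporter carrying the Shn3 3'UTR in osteoblasts.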 It is filed as functional.
The target in assay [15] is T4, Protein disulfide-isomerase (Homo sapiens, UniProt P07237). As to the kind of experiment: PDI inhibitors, insulin aggregation turbidity, dose response, biochemical, absorbance, cherry-picked samples (AID 602350). It is filed as functional.
T4 sequence (P07237 whole entry): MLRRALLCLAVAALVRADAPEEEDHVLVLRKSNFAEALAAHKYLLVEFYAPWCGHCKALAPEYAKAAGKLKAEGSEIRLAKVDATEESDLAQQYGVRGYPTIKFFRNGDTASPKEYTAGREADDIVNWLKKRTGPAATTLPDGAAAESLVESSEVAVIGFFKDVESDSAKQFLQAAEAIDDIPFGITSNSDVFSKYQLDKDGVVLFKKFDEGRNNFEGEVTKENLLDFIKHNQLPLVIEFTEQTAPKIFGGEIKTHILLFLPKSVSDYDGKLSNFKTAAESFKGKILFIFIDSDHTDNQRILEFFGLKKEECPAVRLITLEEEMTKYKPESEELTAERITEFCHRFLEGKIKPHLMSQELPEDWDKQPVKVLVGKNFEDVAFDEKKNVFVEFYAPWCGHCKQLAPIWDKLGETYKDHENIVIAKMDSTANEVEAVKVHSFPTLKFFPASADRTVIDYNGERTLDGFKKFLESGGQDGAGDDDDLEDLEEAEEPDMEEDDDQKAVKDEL
Another assay has as its target Paired box protein Pax-8 (Homo sapiens, UniProt Q06710). As to the kind of experiment: inhibitors of PAX8-driven TPO luciferase reporter, dose response, RMG-I cells, cherry-pick (AID 687027).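 Further: luciferase reporter driven by Pax8 target thyroperoxidase promoter measured by SteadyGlo luminescence.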 It is filed as functional, cell-based.
Assay [16] concerns the target T5, Beta Lactamase (Pseudomonas aeruginosa, UniProt Q932Y6). As to the kind of experiment: beta-lactamase reporter inhibitor potency, dose response, artefact control for NOD2-RIPK2 interaction inhibitor project, BLA reporter cells, FRET fluorescence (AID 651552). It is filed as functional, cell-based.
A short description of assay [17]: Fluorescence-based cell-based high throughput dose response assay for inhibitors of the interaction of nucleotide-binding oligomerization domain containing 2 (NOD2) and the receptor-interacting serine-threonine kinase 2 (RIPK2). The note with it: Homo sapiens. The format is functional.
Assay [18] in a line: control 3'UTR Renilla luciferase suppression, dose response, counter-screen for Shn3 inhibitor project, cell-based, Clone20-Shn3RL, cherry-picked (AID 624133). It is filed as functional.
For assay [19], the target named is T4, Protein disulfide-isomerase. Nature of the assay: PDI inhibitors, insulin turbidity readout, dose response, biochemical, absorbance, cherry-picked samples, set 2 (AID 624274). It is filed as functional.
Assay [20] has as its target T6, ATP-dependent translocase ABCB1 (Homo sapiens, UniProt P08183). As to the kind of experiment: ABCG2 efflux pump inhibitor potency, dose response, Ig-MXP3 cells, JC-1, flow cytometry, set 2 (AID 504566).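 Further: flow cytometry median green fluorescence of retained JC-1 dye; potency of efflux pump inhibition measured as rising substrate retention.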 The format is functional. The note with it: read-out: EC50_MICROM_.
The target in assay [21] is T6, ATP-dependent translocase ABCB1. As to the kind of experiment: ABCB1 efflux inhibitor potency, dose response, Jurkat-DNR cells, JC-1, flow cytometry, set 2 (AID 504569).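 Further: potency of pump inhibitors that raise cellular JC-1 green fluorescence up to the nicardipine level.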 It is filed as functional. The note with it: read-out: EC50_MICROM_.
Assay [22] in a line: HEK293T cytotoxicity, dose response, cytotoxicity control for miR-122 modulator project, cell-based, activator set, cherry-pick (AID 720690).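 Further: HEK293T human cells scored for general mammalian cytotoxicity.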 The format is functional.
The nature of assay [23]: miR-122 activators in hepatoma reporter cells, dose response, cell-based, Huh7 psiCHECK-miR122, Renilla luciferase, cherry-picked (AID 651956).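 Further: huh7 hepatoma cells stably carrying a psiCHECK-2 miR-122 sensor plasmid; renilla luciferase signal reporting endogenous miR-122 activity after 48 h compound exposure.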 The format is functional.
Assay [24] has as its target T7, Beta-lactamase (Pseudomonas aeruginosa, UniProt Q79MP6). As to the kind of experiment: IMP-1 metallo-beta-lactamase inhibitors, dose response, selectivity assay for VIM-2 inhibitor project, biochemical, epi-absorbance (AID 1920).
Assay [25] has as its target Beta-lactamase (Salmonella choleraesuis (strain SC-B67), UniProt Q5J463). As to the kind of experiment: Epi-absorbance-based counterscreen for selective VIM-2 inhibitors: dose response biochemical high throughput screening assay to identify inhibitors of TEM-1 serine-beta-lactamase.
For assay [26], the target named is T5, Beta Lactamase. As to the kind of experiment: VIM-2 metallo-beta-lactamase inhibitor potency, dose response, biochemical, epi-absorbance readout, selective inhibitors (AID 1919).
For assay [27], the target named is T5, Beta Lactamase. Nature of the assay: VIM-2 inhibitor FRET-based artefact check, dose response, artefact control for selective VIM-2 inhibitor project, biochemical, FRET readout, CCF2 substrate (AID 1926).
Assay [28] deals with T7, Beta-lactamase. Nature of the assay: […] counterscreen for selective VIM-2 inhibitors: dose response biochemical high throughput screening assay to identify inhibitors of IMP-1 metallo-beta-lactamase.

T5 sequence (Q932Y6 whole entry, the tested form may be a part): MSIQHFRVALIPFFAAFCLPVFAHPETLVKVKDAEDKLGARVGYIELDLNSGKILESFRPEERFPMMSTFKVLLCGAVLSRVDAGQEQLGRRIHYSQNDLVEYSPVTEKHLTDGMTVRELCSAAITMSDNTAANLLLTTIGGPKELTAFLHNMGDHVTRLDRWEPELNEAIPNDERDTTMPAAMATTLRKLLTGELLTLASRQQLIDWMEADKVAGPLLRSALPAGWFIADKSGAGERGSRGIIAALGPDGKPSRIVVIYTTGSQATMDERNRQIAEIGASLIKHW
T7 sequence (Q79MP6 whole entry): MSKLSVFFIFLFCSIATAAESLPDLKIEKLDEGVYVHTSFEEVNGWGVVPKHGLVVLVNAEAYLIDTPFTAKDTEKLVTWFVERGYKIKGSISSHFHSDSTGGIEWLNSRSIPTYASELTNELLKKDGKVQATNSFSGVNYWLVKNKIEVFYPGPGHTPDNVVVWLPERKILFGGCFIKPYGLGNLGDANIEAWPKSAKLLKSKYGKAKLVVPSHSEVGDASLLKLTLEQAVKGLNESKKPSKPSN
T6 sequence (P08183 whole entry): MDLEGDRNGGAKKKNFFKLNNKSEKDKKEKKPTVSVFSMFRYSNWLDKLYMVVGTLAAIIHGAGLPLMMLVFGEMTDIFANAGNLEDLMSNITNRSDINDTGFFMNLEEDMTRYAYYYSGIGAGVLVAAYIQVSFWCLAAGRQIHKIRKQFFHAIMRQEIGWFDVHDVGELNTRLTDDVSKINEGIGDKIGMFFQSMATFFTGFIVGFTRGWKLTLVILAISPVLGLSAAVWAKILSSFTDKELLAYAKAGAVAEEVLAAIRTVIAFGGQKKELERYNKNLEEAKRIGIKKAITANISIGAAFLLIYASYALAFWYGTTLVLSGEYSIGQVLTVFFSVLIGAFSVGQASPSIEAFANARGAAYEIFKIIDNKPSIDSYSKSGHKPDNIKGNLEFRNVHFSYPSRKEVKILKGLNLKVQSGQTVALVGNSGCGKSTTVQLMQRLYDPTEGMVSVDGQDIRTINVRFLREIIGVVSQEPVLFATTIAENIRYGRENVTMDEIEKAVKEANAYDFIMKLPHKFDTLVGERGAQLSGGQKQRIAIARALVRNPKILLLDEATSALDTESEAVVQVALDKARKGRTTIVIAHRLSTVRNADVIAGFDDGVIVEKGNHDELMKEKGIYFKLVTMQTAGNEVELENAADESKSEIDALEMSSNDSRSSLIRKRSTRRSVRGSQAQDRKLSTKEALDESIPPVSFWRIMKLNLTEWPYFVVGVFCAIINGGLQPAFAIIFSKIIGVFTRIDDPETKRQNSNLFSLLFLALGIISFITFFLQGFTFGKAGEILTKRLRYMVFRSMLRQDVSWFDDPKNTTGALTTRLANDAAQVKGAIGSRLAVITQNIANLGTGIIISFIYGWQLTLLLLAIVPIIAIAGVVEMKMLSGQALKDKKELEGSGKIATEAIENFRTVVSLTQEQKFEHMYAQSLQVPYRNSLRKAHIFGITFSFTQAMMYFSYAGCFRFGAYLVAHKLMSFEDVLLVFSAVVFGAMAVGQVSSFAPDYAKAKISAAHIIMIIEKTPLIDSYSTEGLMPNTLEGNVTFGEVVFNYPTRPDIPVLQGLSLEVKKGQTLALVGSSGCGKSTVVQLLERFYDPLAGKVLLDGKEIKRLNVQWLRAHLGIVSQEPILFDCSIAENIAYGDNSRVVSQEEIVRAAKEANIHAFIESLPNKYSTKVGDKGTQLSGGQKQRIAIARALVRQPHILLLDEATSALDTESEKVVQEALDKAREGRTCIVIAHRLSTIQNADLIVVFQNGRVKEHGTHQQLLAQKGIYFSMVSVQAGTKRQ
FAD-linked sulfhydryl oxidase ALR, sequence (P55789 whole entry): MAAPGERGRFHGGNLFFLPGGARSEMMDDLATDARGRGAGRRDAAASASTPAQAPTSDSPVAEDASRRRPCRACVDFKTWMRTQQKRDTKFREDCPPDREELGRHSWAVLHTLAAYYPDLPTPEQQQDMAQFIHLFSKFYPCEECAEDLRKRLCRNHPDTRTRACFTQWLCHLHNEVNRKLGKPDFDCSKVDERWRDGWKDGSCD
Paired box protein Pax-8, sequence (Q06710 whole entry): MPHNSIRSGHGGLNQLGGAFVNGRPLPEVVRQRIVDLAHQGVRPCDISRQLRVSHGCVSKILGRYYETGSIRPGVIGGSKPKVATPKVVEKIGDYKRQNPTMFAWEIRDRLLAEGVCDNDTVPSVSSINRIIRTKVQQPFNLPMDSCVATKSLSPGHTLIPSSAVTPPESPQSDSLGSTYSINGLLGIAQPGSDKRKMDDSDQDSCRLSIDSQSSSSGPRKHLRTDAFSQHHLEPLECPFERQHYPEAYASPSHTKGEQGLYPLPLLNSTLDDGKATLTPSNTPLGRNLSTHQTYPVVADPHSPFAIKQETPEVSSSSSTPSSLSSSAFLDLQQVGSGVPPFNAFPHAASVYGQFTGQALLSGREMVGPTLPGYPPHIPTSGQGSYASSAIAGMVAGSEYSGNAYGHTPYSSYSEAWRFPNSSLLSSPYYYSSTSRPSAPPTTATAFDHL
Beta-lactamase (Salmonella choleraesuis (strain SC-B67), UniProt Q5J463), sequence (Q5J463 whole entry): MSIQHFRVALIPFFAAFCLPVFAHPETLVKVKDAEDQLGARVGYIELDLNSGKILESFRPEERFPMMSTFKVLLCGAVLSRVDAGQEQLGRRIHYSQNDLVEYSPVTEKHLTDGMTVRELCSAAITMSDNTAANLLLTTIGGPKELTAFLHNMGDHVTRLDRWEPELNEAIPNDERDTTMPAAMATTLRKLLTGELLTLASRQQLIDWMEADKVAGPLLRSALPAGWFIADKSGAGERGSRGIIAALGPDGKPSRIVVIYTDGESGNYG

Broadly, the AC50 is the concentration giving half of the maximal activity seen. `COc1ccc(-c2c[nH]nc2-c2ccc(OC)cc2O)cc1`: the AC50 in [1] is 9.8 µM (active). Besides, the IC50 at Interleukin-8 [2] is > 79 µM (inactive); on Interleukin-8 [3] it was 43.5 µM (inactive).
In the case of `COc1cc2nc(N(C)C)nc(N)c2cc1OC`, the EC50 was > 60 µM (not active) in assay [4], 37 µM (inactive) in [5], > 91.2 µM (inactive) in assay [6] and 6.08 µM (active) in [8]. Further, the AC50 in [7] was 12.5 µM (active).
On to `Cc1c(NC(=O)C2CC(c3ccc(F)cc3)=NO2)c(=O)n(-c2ccccc2)n1C` (configuration not stated), for which the EC50 is > 100 µM (inactive) in [9] and > 195 µM (not active) in assay [10].
Regarding `Cc1nc(NCc2ccc(S(N)(=O)=O)cc2)c2c(C)c(C)sc2n1`, the IC50 in [11] is 42.5 µM (inactive).
On to `CS(=O)(=O)c1ccc(C(=O)OCC(=O)N2CCN(CCC3CCCCC3)CC2)cc1[N+](=O)[O-]`, for which the half-maximal activity concentration (AC50) in [12] was 8.73 µM (active); in [13], 27 µM (active); in assay [14] it was 2.41 µM (active); in assay [15] it was < 0.009 µM (active); on Paired box protein Pax-8 it was 6.68 µM (active); in assay [18], 5.81 µM (active). Moreover, in [19], the AC50 is 0.009 µM (active). Also, the IC50 on Beta Lactamase [16] was 11.6 µM (inactive); in assay [17], 1.84 µM (active).
Regarding `COc1cccc(-c2cc(N3CCN(C(=O)c4ccoc4)CC3)n3nc(-c4cccc(Cl)c4)cc3n2)c1`, the AC50 in [12] was 49 µM (active); in [14], 6.22 µM (active); in [18], > 70 µM (inactive). Also, the figures for the EC50 in assay [20] and in assay [21] were 0.76 µM (active) and 2.89 µM (active), respectively.
Consider `C[C@@H]1CN([C@@H](C)CO)C(=O)c2cc(C#CC3CCCCC3)cnc2O[C@H]1CN(C)S(=O)(=O)c1cccc(F)c1`, for which the figures for the AC50 in assay [22] and in [23] were 24.6 µM (active) and 13.9 µM (active), respectively.
As to `CCc1nnc(S)n1/N=C/C(C)=C\c1ccccc1`, the IC50 at Beta-lactamase [24] is > 59.6 µM (inactive); on Beta-lactamase [25] it was > 59.6 µM (inactive); at Beta Lactamase [26] it was 1.23 µM (active); at Beta Lactamase [27], 0.332 µM (active); at Beta-lactamase [28] it was > 59.6 µM (inactive).
